# Data as given in US20150017673A1, “COMPOSITIONS AND METHODS FOR DRUG-SENSITIZATION OR INHIBITION OF A CANCER CELL” (priority 2012, published 2015).
# Like-named read-outs stand apart in the source and are kept apart here.
# How the values were obtained:
# myeloma RPMI 8226 = test: Cell growth assay on RPMI 8226 cells; assay type: cell-based; details: for IC50: Homo sapiens
# Procedure: (§1) Compositions were tested on CHOP-resistant G3 NHL cells that had been cultivated in RPMI medium for five days. Prior to assay, the cells were counted by haemocytometer and cell concentration standardized to 625,000 cells/ml. Test drugs were solubilized in 100% DMSO and then diluted to final assay concentration with 0.1M phosphate buffered saline (PBS) and a final DMSO concentration of 0.5%. Cells were added to assay plates containing the test drugs (rifabutin+148 ng/ml, 74 ng/ml, 37 ng/ml, or 0 ng/ml doxorubicin) and allowed to incubate for 96 hours at 37° C. and 5% CO2. The metabolic dye rezasurin was added to the wells of the assay plate at a final concentration of 20 μg/ml and the plates were incubated for an additional 24 hours. The plates were then read in a BMG Polarstar plate reader at wavelength (573-605) and the data plotted as OD versus increasing dilutions (i.e. decreasing total amounts) of rifabutin derivative concentration.
# (§2) Additional cell lines used include: ovarian cancer OVCAR-8, T lymphoblastoid leukemia MOLT-4, dexamethasone-resistant multiple myeloma MM.1R, myeloid leukemia cells HL-60, osteosarcoma cells U-2 OS, and myeloma RPMI 8226.
# [1] = system: myeloid leukemia cells HL-60; test: Cell growth assay on HL-60 cells; assay type: cell-based; details: for IC50: Homo sapiens
# Procedure: as §1, §2
# [2] = system: multi-drug resistant sarcoma cell line MES-SA-Dx5; test: Cell growth assay on MES-SA-Dx5 cells; assay type: cell-based; details: MES-SA-Dx5, uterus sarcoma
# Procedure: as §1
# (§3) In these experiments, the following cell lines were used: CHOP-resistant NHL cell line G3, CHOP-sensitive NHL cell line CRL2631, the multi-drug resistant sarcoma cell line MES-SA-Dx5; multi-drug-resistant breast cancer cell line MDA-MB-231, multi-drug resistant ovarian carcinoma cell line SK-OV3, multi-drug resistant ovarian cancer cell line NCI/ADR-RES, drug-sensitive ovarian cancer cell line OVCAR-5, and multi-drug resistant ovarian cancer cell line OVCAR-3.
# as §2
# [3] = system: drug-sensitive ovarian cancer cell line OVCAR-5; test: Cell growth assay on OVCAR-5 cells; assay type: cell-based; details: OVCAR-5, ovarian carcinoma
# Procedure: as §1, §3, §2
# [4] = mice treated with RTI-79 with or without DOX
# Procedure: Swiss mice were dosed with levels equal to and exceeding that of intended doses.
# [5] = system: multi-drug resistant ovarian cancer cell line OVCAR-3; test: Cell growth assay on OVCAR-3 cells; assay type: cell-based; details: OVCAR-3, ovarian carcinoma
# Procedure: as §1
# as §3, with “OVCAR-3. […]” for “OVCAR-3.”
# [6] = system: primary human fibroblasts; details: with and without 2 uM Dox
# VEGF = VEGF secretion ELISA in U2-OS cells; assay type: cell-based; details: RTI-79, U2-OS cells; decrease from 998
# ABCB1 pumps = ABCB1 pumps (Homo sapiens, UniProt P08183)
# Chain of ABCB1 pumps (P08183 whole entry): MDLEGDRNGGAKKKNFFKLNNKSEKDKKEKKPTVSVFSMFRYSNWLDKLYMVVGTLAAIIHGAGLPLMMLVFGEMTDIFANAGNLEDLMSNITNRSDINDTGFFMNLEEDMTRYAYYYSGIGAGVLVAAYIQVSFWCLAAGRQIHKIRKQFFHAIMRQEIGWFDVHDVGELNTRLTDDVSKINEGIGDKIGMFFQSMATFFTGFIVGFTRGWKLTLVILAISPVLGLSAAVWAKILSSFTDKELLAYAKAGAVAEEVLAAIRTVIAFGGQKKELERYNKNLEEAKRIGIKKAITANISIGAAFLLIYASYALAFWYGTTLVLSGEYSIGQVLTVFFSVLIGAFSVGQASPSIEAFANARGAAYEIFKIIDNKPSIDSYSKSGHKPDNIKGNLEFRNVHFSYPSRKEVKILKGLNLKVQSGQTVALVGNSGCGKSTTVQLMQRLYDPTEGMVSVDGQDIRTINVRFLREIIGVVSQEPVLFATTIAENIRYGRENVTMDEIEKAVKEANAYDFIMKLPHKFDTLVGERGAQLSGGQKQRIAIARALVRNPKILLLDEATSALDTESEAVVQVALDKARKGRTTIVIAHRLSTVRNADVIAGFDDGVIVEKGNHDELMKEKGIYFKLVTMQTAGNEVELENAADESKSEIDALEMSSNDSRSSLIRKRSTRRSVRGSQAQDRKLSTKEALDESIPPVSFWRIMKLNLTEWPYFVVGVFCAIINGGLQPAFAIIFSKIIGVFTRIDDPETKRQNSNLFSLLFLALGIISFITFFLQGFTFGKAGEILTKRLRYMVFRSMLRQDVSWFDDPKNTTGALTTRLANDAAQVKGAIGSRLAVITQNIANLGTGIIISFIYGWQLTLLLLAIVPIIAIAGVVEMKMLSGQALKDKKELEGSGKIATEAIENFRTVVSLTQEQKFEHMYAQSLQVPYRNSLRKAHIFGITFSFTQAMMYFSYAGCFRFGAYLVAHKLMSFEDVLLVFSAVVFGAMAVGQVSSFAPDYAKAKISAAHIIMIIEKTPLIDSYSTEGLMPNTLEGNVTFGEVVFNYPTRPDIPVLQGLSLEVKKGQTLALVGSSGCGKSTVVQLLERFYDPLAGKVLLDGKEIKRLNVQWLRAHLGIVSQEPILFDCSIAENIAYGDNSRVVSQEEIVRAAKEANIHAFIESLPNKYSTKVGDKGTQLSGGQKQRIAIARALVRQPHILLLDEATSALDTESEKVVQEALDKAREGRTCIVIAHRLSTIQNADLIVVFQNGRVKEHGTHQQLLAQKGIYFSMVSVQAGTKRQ
# [7] = Time to maximal RTI-79 plasma concentration; assay type: in vivo; details: after administration
# lymphoma cell line G3 = test: Cell growth assay (resazurin fluorescence) on CHOP-resistant G3 NHL cells; assay type: cell-based, human
# Procedure: as §1
# [8] = system: multi-drug resistant ovarian cancer cell line NCI/ADR-RES; test: Cell growth assay on NCI/ADR-RES cells; assay type: cell-based; details: NCI/ADR-RES, ovarian carcinoma
# Procedure: as §1, §3, §2
# [9] = system: multi-drug resistant ovarian cancer cell line (NCI/ADR-RES); test: NCI/ADR-RES xenograft efficacy studies in nude mice; assay type: in vivo; details: DOXIL 7 mg/kg i.v. + RTI-79 25 mg/kg oral
# Text: In a sixth efficacy study, we generated xenografts of multi-drug resistant ovarian cancer cell line (NCI/ADR-RES) by implantation of NCI/ADR-RES cell xenografts in the left and right flanks of nude mice, resulting in two tumors per mice. […] Tumor size was monitored.
# In a seventh efficacy study, we generated xenografts of multi-drug resistant ovarian cancer cell line (NCI/ADR-RES) by implantation of NCI/ADR-RES cells xenografts in the left and right flanks of nude mice, resulting in two tumors per mouse. […] Tumor size was monitored.
# [10] = system: multi-drug-resistant breast cancer cell line MDA-MB-231; test: Cell growth assay on MDA-MB-231 cells; assay type: cell-based; details: MDA-MB-231, breast carcinoma
# Procedure: as §1, §3, §2
# MMP2 = MMP2 secretion ELISA in U2-OS cells; assay type: cell-based; details: 5 uM RTI-79, U2-OS cells; reduced from 22.4
# ROS in G3 lymphoma cells = test: Intracellular ROS (CellROX, flow cytometry) in G3 cells; assay type: cell-based, human
# Procedure: (§4) Cells were then stained with the fluorescent ROS indicator, CellROX, and subjected to flow cytometry to quantitate total intracellular ROS.
# The electron transport chain (ETC) is known to be a primary generator of ROS in the cell. Most of the ROS is generated by Complexes I and III of the ETC Inhibition of Complex I results in electrons piling up and leaking to react with oxygen to produce ROS.
# (§5) All samples were analyzed at the same time in flow cytometry.
# [11] = system: ROS in ADR-RES ovarian cells; test: Intracellular ROS (CellROX, flow cytometry) in ADR-RES cells; assay type: cell-based; details: 10 uM, 2 hrs
# Text: as §4
# [12] = system: ROS in OVCAR8 ovarian cells; test: Intracellular ROS (CellROX, flow cytometry) in OVCAR8 cells; assay type: cell-based; details: 10 uM, 2 hrs, degree much less than in resistant lines
# Text: as §4
# [13] = system: multi-drug resistant ovarian carcinoma cell line SK-OV3; test: Cell growth assay on SK-OV3 cells; assay type: cell-based, human; details: for IC50: Homo sapiens, SK-OV-3
# Procedure: as §1
# as §3, with “OVCAR-3. […]” for “OVCAR-3.”
# calcium in G3 cells = test: Calcium mobilization (Fluo-4AM, flow cytometry); assay type: cell-based, human
# Procedure: MDR/P-gp activity is closely associated with calcium status in the cell, so calcium modulators were tested for effects on ROS. […] Relatively Dox-sensitive lymphoma (CRL2631, 10S, WSU) and ovarian carcinoma (OVCAR8) and more Dox-resistant lymphoma (G3R,10R, WSUR) and ovarian carcinoma (ADR) were treated with 10 uM […] for 2 hrs. […] Cells were co-stained with the cell-permeable red fluorescent ROS indicator, CellROX, and cell-permeable green fluorescent calcium indicator, Fluo-4AM, and then subjected to flow cytometry to quantitate changes in ROS and calcium levels.
# as §5
# ovarian cancer OVCAR-8 = test: Cell growth assay on OVCAR-8 cells; assay type: cell-based; details: for IC50: Homo sapiens
# Procedure: as §1, §2
# [14] = system: osteosarcoma cells U-2 OS; test: Cell growth assay on U-2 OS cells; assay type: cell-based; details: for IC50: Homo sapiens, U2OS
# Procedure: as §1, §2
# [15] = therapeutic drug alone, read-out: IC50
# [16] = therapeutic drug with Rifabutin, read-out: IC50 (μM) with Rifabutin
smiles,measurement,setting,value
"CC(=O)O[C@H]1C(=O)[C@@]2(C)[C@H]([C@H](OC(=O)c3ccccc3)[C@]3(O)C[C@H](OC(=O)[C@H](O)[C@@H](NC(=O)c4ccccc4)c4ccccc4)C(C)=C1C3(C)C)[C@]1(OC(C)=O)CO[C@@H]1C[C@@H]2O [Paclitaxel, paclitaxel]",IC50,myeloma RPMI 8226; [15],1 µM
same,IC50,myeloma RPMI 8226; [16],0.89 µM
same,Fold increase in potency,myeloma RPMI 8226; with vs without Rifabutin,1.1 fold
same,IC50,[1]; [15],0.4 µM
same,IC50,[1]; [16],0.2 µM
same,Fold increase in potency,[1]; with vs without Rifabutin,2 fold
"COC1C=COC2(C)Oc3c(C)c(O)c4c(c3C2=O)C2=NC3(CCN(C(=O)OCC(C)C)CC3)NC2=C(NC(=O)C(C)=CC=CC(C)C(O)C(C)C(O)C(C)C(OC(C)=O)C1C)C4=O (stereo not shown) [RTI-79, 4-deoxy-3,4[2-spiro-[1-(isobutyloxycarbonyl)-piperidin-4-yl]]-(1H)-imidazo-(2,5-dihydro)rifamycin S]",Magnitude of potentiation in combination with doxorubicin,[2],++ (potentiation between 2.1 to 5 fold increase)
same,Magnitude of potentiation in combination with doxorubicin,[3],+ (potentiation between 1.2 to 2.0 fold increase)
same,"heart histology (H&E), complete blood count and manual differential",[4],no significant differences
same,Magnitude of potentiation in combination with doxorubicin,[5],+ (potentiation between 1.2 to 2.0 fold increase)
same,comparative cytotoxicity to normal cells,[6],not toxic to normal cells
same,VEGF secretion,VEGF,436 pg/million cells
same,inhibition of efflux pumps,ABCB1 pumps; NCI/ADR-RES and G3 cells,clear inhibition of efflux pumps
same,rank as inhibitor of ABCB1 among rifabutin derivatives,ABCB1 pumps; calcein-AM efflux,strongest inhibitor
same,time to maximal plasma concentration,[7],≤ 3 h
same,Magnitude of potentiation in combination with doxorubicin,"lymphoma cell line G3; G3, lymphoma B cells",++ (potentiation between 2.1 to 5 fold increase)
same,IC50,"lymphoma cell line G3; analog alone, lymphoma cell line G3, read-out: IC50",43 µM
same,IC50,"lymphoma cell line G3; with 1 μM doxorubicin, lymphoma cell line G3, read-out: IC50 (μM) with doxorubicin (1 μM)",1.14 µM
same,Magnitude of potentiation in combination with doxorubicin,[8],++ (potentiation between 2.1 to 5 fold increase)
same,tumor volume lower than in mice receiving only DOXIL,"[9]; seventh study (multiple, large tumors), after 46 days",55%
same,tumor volume reduction during the course of the study,[9]; seventh study,50%
same,tumor volume lower than in mice receiving only DOXIL,"[9]; sixth study, after 41 days",66%
same,Magnitude of potentiation in combination with doxorubicin,[10],+ (potentiation between 1.2 to 2.0 fold increase)
same,MMP2 secretion,MMP2,10.5 ng/million cells
same,time to first increase in ROS,"ROS in G3 lymphoma cells; 10 uM RTI-79, 0 to 30 minutes",1 min
same,total intracellular ROS,"ROS in G3 lymphoma cells; 10 uM, 2 hrs",induced ROS
same,total intracellular ROS,[11],induced ROS
same,total intracellular ROS,[12],induced ROS
same,Magnitude of potentiation in combination with doxorubicin,"[13]; SK-OV3, ovarian carcinoma",+++ (potentiation greater than 5 fold increase)
same,calcium mobilization,"calcium in G3 cells; Dox-resistant cells (G3R, 10R, WSUR), 10 uM, 2 hrs, FIG. 41B/41C",induced both ROS and calcium mobilization
same,onset of calcium mobilization,"calcium in G3 cells; G3 cells, 10 uM RTI-79, 0 to 30 minutes",> 15 min
"O=C1c2c(O)ccc(O)c2C(=O)c2c(NCCNCCO)ccc(NCCNCCO)c21 [Mitoxantrone, mitoxantrone]",IC50,"lymphoma cell line G3; Homo sapiens, therapeutic drug alone, G3, read-out: IC50",0.46 µM
same,IC50,"lymphoma cell line G3; Homo sapiens, therapeutic drug with Rifabutin, G3, read-out: IC50 (μM) with Rifabutin",0.04 µM
same,Fold increase in potency,"lymphoma cell line G3; with vs without Rifabutin, G3",11.5 fold
same,IC50,ovarian cancer OVCAR-8; [15],14 µM
same,IC50,ovarian cancer OVCAR-8; [16],3 µM
same,Fold increase in potency,ovarian cancer OVCAR-8; with vs without Rifabutin,4.7 fold
same,IC50,[14]; [15],0.14 µM
same,IC50,[14]; [16],0.06 µM
same,Fold increase in potency,[14]; with vs without Rifabutin,2.3 fold
same,IC50,"[13]; therapeutic drug alone, SK-OV3, read-out: IC50",> 32 µM
same,IC50,"[13]; therapeutic drug with Rifabutin, SK-OV3, read-out: IC50 (μM) with Rifabutin",12.3 µM
same,Fold increase in potency,"[13]; with vs without Rifabutin, SK-OV3",>2.6 fold
